“And” between values parts separate entries of the source, which are not always exact repeats. Equal values may be shown once.
Legend:
Assay type in all cases: cell-based, soybean
[1] = test system: axillary meristem explants; test: Regeneration capacity of axillary meristem explants on shoot initiation medium with BAP or TDZ; conditions: three weeks on shoot induction medium
Method: Cultivar Jack was used in both growing conditions tested. For in vitro donor material, sterile seeds were sown in a Plantcon™ (SIGMA) containing ½ MS salts and 2% sucrose pH 5.7. Seedlings were maintained at 25° C. 16/8 hours (light/dark) photoperiod, at a light intensity between 40 to 70 μM m^−2 s^−1. For greenhouse donor plants, seeds were sown on Metromix™ and grown in the greenhouse at 25° C. and 16 hour photoperiod. Greenhouse tissues were excised from the plant after 3 weeks. For greenhouse materials, the tissues were surface sterilized by immersion on a solution containing 5% Tween 20, followed by immersion in 70% (v/v) ethanol for 2 min then washed for 10 min in 3.5% (v/v) sodium hypochlorite solution and finally rinsed 3 times in sterile water. For in vitro donor material, no further sterilization was needed. Axillary meristem explants were placed basipetal into shoot initiation medium containing full strength MS salts and B5 Gamborg's vitamins amended with either 5 μM BAP or 2 mg/L (9.1 μM) TDZ. […]

[2] = test system: leaf explants; test: Callus/shoot pad regeneration of leaf explants after co-cultivation on CCM with thiol compounds (Example 8, experiment 1); conditions: L-cysteine levels over 400 mg/L (3.3 mM) in CCM
Method: (§1) In both experiments, soybean cultivar (e.g., Jack) and the Agrobacterium tumefaciens strain AGL1 containing the binary plasmid pBPSEW008 (SEQ ID NO: 1) was used. The binary plasmid contains nosP-bar-nosT and pUBI-gusINT-nosT. The leaf explants and Agrobacterium were prepared as described earlier. The final Agrobacterium OD600 used for all experiments was 0.5. In the first experiment, two repetitions were made for which the following conditions were tested, • (1) addition of one of five thiol combinations added to CCM (no thiols, 100 mg/L L-cysteine (0.825 mM), 400 mg/L L-cysteine (3.3 mM), 1000 mg/L L-cysteine (8.25 mM), or 1 mM sodium thiolsulfate+1 mM DTT+ 1000 mg/L L-cysteine (8.25 mM)), • (2) 3, 4, or 5 day co-cultivation at 25° C., and • (3) incubation in the dark or under 100 μE/m2s cool white light under a 16 light/8 dark light regime. Ten explants were prepared for each treatment. The explants were grown on SIM medium for 2 weeks after which time the percent of explants developing a callus/shoot pad were recorded.

[3] = test system: explants from the cultivar L00106CN; test: GUS (+) foci on explants infected with AGL1 carrying three binary vectors, with L-cysteine; conditions: 400 mg/L (3.3 mM) L-cysteine, AGL1, 10 days post-infection
From the text: Seed germination, propagation, A. tumefaciens and axillary meristem explant preparation, and inoculations were done as previously described. In the first experiment, three A. tumefaciens strains, MP90, LBA4404 and AGL1, containing the binary vector pBPSMM192b (SEQ ID NO: 2) were compared. The infected propagated axillary meristems with the 3 A. tumefaciens strains were removed from the co-cultivation media after 3 days and GUS stained 10 days after inoculation.
In a separate experiment, GUS expression was evaluated on explants from the cultivar L00106CN 10-days after infection with the Agrobacterium strain AGL1 containing the binary vectors pBPSLM003 [LB-OCSt-bar-pMAS::pSuper-gusINT-NOSt-RB] (SEQ ID NO: 3), pBPSMM192a [LB-NOSt-gusINT-pSuper::AtAhast-AtAhas-pAtAhas-RB], or pBPSMM192b [LB-pSuper-gusINT-NOSt::AtAhast-AtAhas-pAtAhas-RB] (SEQ ID NO: 2). The backbone sequence of pBPSLM003 (SEQ ID NO: 3) is different of that in pBPSMM192a and b (SEQ ID NO: 2). The vector pBPSMM192a [LB-NOSt-gusINT-pSuper::AtAhast-AtAhas-pAtAhas-RB is distinguished from the vector pBPSMM192b (SEQ ID NO: 2) by the orientation of the pSuper-gusINT-NOSt expression cassette, which is in reverse orientation.
Explants were also evaluated for GUS expression on explants that had been co-cultivated with or without 400 mg/L (3.3 mM) L-cysteine in the solid co-cultivation medium. Twenty explants of each treatment were prepared for each repetition, a total of 2 repetitions in this experiment. GUS expression was scored 10-days-post initial infection.

[4] = test system: leaf explants; test: Transient GUS expression on leaf explants after co-cultivation on CCM with thiol compounds (Example 8, experiment 2); conditions: for Entire: explant with GUS (+) foci: entire explant immersed; for Dip: explant with GUS (+) foci: petiole end dipped
Method: as §1, with “regime. In the second experiment, explants were prepared and subjected to the above treatments except all leaf explants were co-cultivated for 5 days and either the entire ex-plant was immersed into the Agrobacterium/CCM suspension for 10 minutes or the cut petiole end of the explant dipped.” for “regime.”, “entirely immersed per treatment and 4” for “prepared for each treatment. The”, “dipped per treatment. All explants were GUS-stained immediately” for “grown on SIM medium for 2 weeks”, “co-cultivation.” for “which time the percent of explants developing a callus/shoot pad were recorded.”

[5] = test system: propagated axillary meristems (cultivar Jack); test: GUS expression on propagated axillary meristem explants co-cultivated with L-cysteine; conditions: for frequency of propagated axillary meristems showing GUS(+) foci, Day3: AGL1
Method: Explant preparation: Seeds of variety Jack were surface sterilized by exposure to 70% ethanol for 6 min then immersed in a solution that contained 25% commercial bleach (NaOCl) and 0.1% Tween 20 and stirred at 200 rpm for 20 min. Seeds were rinsed 4 times in sterile water. Germination was carried out for 7 day in the dark at 25° C. The root and half of both cotyledons were removed from the seven-day-old seedlings and imbedded into propagation media on 150×20 mm Petri plates. Plates were sealed with Parafilm™ and placed in a culture room at 25° C. in the light for 2 to 5 weeks.
A. tumefaciens preparation and explant inoculation: A. tumefaciens strain AGL1 carrying the binary vector pBPSMM192b [LB-pSuper-gusINT-NOSt::AtAhast-AtAhas-pAtAhas-RB] (SEQ ID NO: 2) was used. A single colony was used to inoculate 25 to 30 ml LB media containing the appropriate antibiotics. Flasks were shaken on an orbit shaker (220 rpm) at 28° C. for 24 to 36 hours the OD600 reached 0.8 to 1.0. The Agrobacterium was pelleted by centrifugation at 3500 rpm for 8 to 10 min. The bacterial cells were re-suspended in liquid co-cultivation media containing 200 μM acetosyringone. Once cut, the propagated axillary meristem explants were immediately immersed in the A. tumefaciens suspension and remained for 30 minutes. Infected tissues were then transferred either to a vacuum chamber (25-30 mm Hg) for 5 min or placed directly on co-cultivation media. Before transferring onto cultivation medium, explants were blotted dry on sterile filter paper. The treatment tested was the addition of 0, 400, or 800 mg/L L-cysteine into the solid co-cultivation media (0, 3.3, or 6.6 mM, respectively). Co-cultivation was carried out in the dark for 3 days at 25° C. Vacuum infiltration results in an increase of transformation efficiency in protocols which were performed without cysteine-supplementation, but has no significant effect on protocols which were performed with cysteine-supplementation. GUS histochemical assay: Propagated axillary meristem explants infected with A. tumefaciens strain AGL1 were removed from the co-cultivation media after 3 days and stained with Gus overnight at 37° C. Remaining explants were transfer to shoot induction media containing 500 mg/L Timentin™. Gus histochemical assays were also performed at 10 and 45 days after inoculation. Results: After 3 days co-cultivation, the frequency of explants with GUS^+ foci increased from 2.5% to 45 and 63% by the addition of 800 (6.6 mM) or 400 mg/L (3.3 mM) L-cysteine, respectively, into the solid co-cultivation medium. […] The increases in GUS staining were also seen 10 and 45 days after co-cultivation (Table 10).

[6] = 100 mg/l Cys in CCM, Light, 5 days co-cultivation

For `c1ccc(CNc2ncnc3nc[nH]c23)cc1` [BAP, 6-benzylaminopurine], the “Mean # of shoots per explant” value ([1]; Greenhouse plant, BAP 5 uM) was 0.20 and the “Mean # of shoots per explant” value ([1]; In vitro plant, BAP 5 uM) was 1.97.

With `N[C@@H](CS)C(=O)O` [L-cysteine] the “effect on explant tissue” value [2] was “tissue death”, the “frequency of GUS (+) foci on explants, pBPSLM003” value [3] was 85% and the “frequency of GUS (+) foci on explants, pBPSMM192a” value [3] was 77%. For the same compound, the “frequency of GUS (+) foci on explants, pBPSMM192b” value [3] was 95%, the “Entire: explant with GUS (+) foci” value [4, 6] was 6/10 and the “Dip: explant with GUS (+) foci” value [4, 6] was 0/4. For the same compound, the “Entire: explant with GUS (+) foci” value ([4]; 100 mg/l Cys, Dark) was 7/10, the “Dip: explant with GUS (+) foci” value ([4]; 100 mg/l Cys, Dark) was 0/4 and the “Entire: explant with GUS (+) foci” value ([4]; 400 mg/l Cys, Dark) was 9/10. The “Dip: explant with GUS (+) foci” value ([4]; 400 mg/l Cys, Dark) was 3/4, the “Entire: explant with GUS (+) foci” value ([4]; 400 mg/l Cys, Light) was 9/10 and the “Dip: explant with GUS (+) foci” value ([4]; 400 mg/l Cys, Light) was 1/4. The “effect on explant tissue” value ([4]; 1000 mg/L L-cysteine in CCM) was “significant bleaching”, the “Entire: explant with GUS (+) foci” value ([4]; 1000 mg/l Cys, Dark) was 3/10 and the “Dip: explant with GUS (+) foci” value ([4]; 1000 mg/l Cys, Dark) was 0/4. For the same compound, the “Entire: explant with GUS (+) foci” value ([4]; 1000 mg/l Cys, Light) was 3/10, the “Dip: explant with GUS (+) foci” value ([4]; 1000 mg/l Cys, Light) was 1/4 and the “frequency of propagated axillary meristems showing GUS(+) foci, Day 10” value ([5]; 400 mg/L L-cysteine) was 90.0%. The “frequency of propagated axillary meristems showing GUS(+) foci, Day 45” value ([5]; 400 mg/L L-cysteine) was 22.5%, the “frequency of propagated axillary meristems showing GUS(+) foci, Day3” value ([5]; 400 mg/L L-cysteine in solid co-cultivation medium) was 63% and 65.0% and the “frequency of propagated axillary meristems showing GUS(+) foci, Day 10” value ([5]; 800 mg/L L-cysteine) was 72.5%. For the same compound, the “frequency of propagated axillary meristems showing GUS(+) foci, Day 45” value ([5]; 800 mg/L L-cysteine) was 7.5%, the “frequency of propagated axillary meristems showing GUS(+) foci, Day3” value ([5]; 800 mg/L L-cysteine in solid co-cultivation medium) was 45% and 47.5% and the “browning and tissue necrosis of explants” value ([5]; compared with explants not exposed to L-cysteine) was “less browning and tissue necrosis”.

In the case of `O=C(Nc1ccccc1)Nc1cnns1` [TDZ], the “Mean # of shoots per explant” value ([1]; Greenhouse plant, TDZ 9.1 μM) is reported as 0.32 and the “Mean # of shoots per explant” value ([1]; In vitro plant, TDZ 9.1 μM) is reported as 0.74.

— patent US8541653B2, “Transformation of soybean” (BASF Plant Science GmbH, priority 2004, dated 2013)
